According to ChEMBL document CHEMBL2040736, “Design of potent and selective hybrid inhibitors of the mitotic kinase Nek2: structure-activity relationship, structural biology, and cellular activity” (J Med Chem, 2012):

Tests used:
[1] = target: Serine/threonine-protein kinase PLK1 (Homo sapiens, UniProt P53350); experiment: Inhibition of Plk1 using 5-FAMRRRAGALMDASFEEQ- CONH2 as substrate after 75 mins by caliper method
[2] = target: T1, Serine/threonine-protein kinase Nek2 (Homo sapiens, UniProt P51955)
T1 sequence (P51955 whole entry): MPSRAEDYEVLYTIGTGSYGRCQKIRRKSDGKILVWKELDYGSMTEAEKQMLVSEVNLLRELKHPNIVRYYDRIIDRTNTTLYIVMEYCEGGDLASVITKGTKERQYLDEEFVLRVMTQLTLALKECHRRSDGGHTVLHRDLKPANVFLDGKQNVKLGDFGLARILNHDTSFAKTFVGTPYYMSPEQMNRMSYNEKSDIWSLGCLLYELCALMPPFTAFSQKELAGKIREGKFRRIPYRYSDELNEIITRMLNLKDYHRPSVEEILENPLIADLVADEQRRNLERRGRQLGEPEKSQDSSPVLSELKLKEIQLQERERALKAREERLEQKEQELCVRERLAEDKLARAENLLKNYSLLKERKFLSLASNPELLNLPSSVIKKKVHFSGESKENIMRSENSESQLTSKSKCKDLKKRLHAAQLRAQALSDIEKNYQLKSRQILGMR

[3] = target: Cyclin-dependent kinase 2 (Homo sapiens, UniProt P24941); experiment: Inhibition of CDK2 by caliper method
[4] = target: T2, Dual specificity protein kinase TTK (Homo sapiens, UniProt P33981); experiment: Inhibition of MPS1 by caliper method
T2 sequence (P33981 whole entry): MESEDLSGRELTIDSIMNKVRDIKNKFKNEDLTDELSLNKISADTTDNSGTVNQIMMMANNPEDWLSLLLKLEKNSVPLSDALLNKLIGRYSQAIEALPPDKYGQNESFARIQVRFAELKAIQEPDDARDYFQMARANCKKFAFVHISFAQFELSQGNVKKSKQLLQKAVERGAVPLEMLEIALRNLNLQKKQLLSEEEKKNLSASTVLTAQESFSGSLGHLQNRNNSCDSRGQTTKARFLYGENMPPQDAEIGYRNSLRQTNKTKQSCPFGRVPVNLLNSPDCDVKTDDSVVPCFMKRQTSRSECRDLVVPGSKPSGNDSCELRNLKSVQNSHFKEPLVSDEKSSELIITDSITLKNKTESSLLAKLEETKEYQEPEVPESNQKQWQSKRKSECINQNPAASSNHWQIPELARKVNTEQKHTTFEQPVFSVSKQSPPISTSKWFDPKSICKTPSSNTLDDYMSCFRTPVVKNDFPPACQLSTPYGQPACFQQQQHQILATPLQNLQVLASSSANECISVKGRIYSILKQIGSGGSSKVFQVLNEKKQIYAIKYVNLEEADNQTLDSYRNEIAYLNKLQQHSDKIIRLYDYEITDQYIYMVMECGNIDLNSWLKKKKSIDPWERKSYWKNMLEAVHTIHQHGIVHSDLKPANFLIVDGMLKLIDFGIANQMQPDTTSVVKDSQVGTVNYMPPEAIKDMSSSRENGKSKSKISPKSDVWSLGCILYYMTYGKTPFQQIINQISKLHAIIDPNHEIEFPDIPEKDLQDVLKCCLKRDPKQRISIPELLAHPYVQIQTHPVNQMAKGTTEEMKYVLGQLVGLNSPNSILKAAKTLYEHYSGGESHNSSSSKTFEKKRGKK

[5] = target: T3, Aurora kinase A (Homo sapiens, UniProt O14965); experiment: Inhibition of Aurora A kinase by caliper method
T3 sequence (O14965 whole entry): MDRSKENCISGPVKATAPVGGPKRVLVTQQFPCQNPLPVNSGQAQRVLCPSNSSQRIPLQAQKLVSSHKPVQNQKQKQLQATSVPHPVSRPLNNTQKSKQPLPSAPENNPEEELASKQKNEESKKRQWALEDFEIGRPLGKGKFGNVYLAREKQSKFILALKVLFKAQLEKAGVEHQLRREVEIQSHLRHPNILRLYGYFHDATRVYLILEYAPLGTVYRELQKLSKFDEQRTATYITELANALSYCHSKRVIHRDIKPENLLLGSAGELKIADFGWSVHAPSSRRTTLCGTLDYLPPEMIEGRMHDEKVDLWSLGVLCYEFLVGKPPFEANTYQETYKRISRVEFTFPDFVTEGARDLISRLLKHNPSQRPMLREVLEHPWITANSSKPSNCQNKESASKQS

[6] = Drug metabolism in mouse liver microsomes after 30 mins; format: ADME, Microsome; conditions: read-out: Drug metabolism
[7] = tested on: MCF7; experiment: Growth inhibition of human MCF7 cells after 92 hrs by CellTiter-Blue assay; format: functional; conditions: MCF7, 92 h
[8] = tested on: U2OS; experiment: Growth inhibition of human U2OS cells after 92 hrs by CellTiter-Blue assay; format: functional
[9] = tested on: MDA-MB-231; experiment: Growth inhibition of human MDA-MB-231 cells after 92 hrs by CellTiter-Blue assay; format: functional; conditions: MDA-MB-231, 92 h
[10] = tested on: HeLa; experiment: Growth inhibition of human HeLa cells after 92 hrs by CellTiter-Blue assay; format: functional
[11] = target: T1, Serine/threonine-protein kinase Nek2; conditions: u2os
Description: Inhibition of Nek2-mediated C-Nap1 phosphorylation in human U2OS cells after 3 hrs by immunofluorescence microscopy

[12] = Permeability of the compound by PAMPA assay; format: ADME

Serine/threonine-protein kinase PLK1, sequence (P53350 whole entry): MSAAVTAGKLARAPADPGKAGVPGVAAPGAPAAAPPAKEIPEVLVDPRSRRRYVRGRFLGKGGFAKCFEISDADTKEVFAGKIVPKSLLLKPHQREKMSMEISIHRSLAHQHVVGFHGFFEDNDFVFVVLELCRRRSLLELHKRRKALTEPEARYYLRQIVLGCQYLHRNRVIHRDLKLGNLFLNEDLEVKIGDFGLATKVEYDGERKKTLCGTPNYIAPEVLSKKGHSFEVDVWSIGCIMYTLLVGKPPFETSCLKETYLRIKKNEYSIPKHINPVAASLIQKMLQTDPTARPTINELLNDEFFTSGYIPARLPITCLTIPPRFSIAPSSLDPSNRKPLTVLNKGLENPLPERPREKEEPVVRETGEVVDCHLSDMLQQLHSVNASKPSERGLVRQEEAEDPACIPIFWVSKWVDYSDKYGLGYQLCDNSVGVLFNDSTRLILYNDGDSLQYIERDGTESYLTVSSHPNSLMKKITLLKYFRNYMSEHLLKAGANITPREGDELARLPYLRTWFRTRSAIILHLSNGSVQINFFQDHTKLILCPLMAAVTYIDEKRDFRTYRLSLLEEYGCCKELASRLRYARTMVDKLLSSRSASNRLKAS

CC(Oc1cc(-c2cc(-c3cccc(CN(C)C)c3)cnc2N)ccc1C(N)=O)c1ccccc1C(F)(F)F (racemic)
IC50 [1]: 3.29 µM | IC50 [2]: 210 nM

CC(Oc1cc(-c2nc(-c3cccc(CN(C)C)c3)cnc2N)ccc1C(N)=O)c1ccccc1C(F)(F)F (racemic)
IC50 [1]: 12.1 µM | IC50 [2]: 2470 nM

CC(Oc1cc(-c2cc(-c3ccc(CN4CCOCC4)s3)cnc2N)ccc1C(N)=O)c1ccccc1C(F)(F)F (racemic)
IC50 [2]: 318 nM

CC(Oc1cc(-c2nc(-c3cc(CN(C)C)cs3)cnc2N)ccc1C(N)=O)c1ccccc1C(F)(F)F (racemic)
IC50 [2]: 2630 nM

Cc1cc(-c2cnc(N)c(-c3ccc(C(N)=O)c(OC(C)c4ccccc4C(F)(F)F)c3)c2)sc1CN(C)C (racemic)
IC50 [2]: 47 nM

COc1cc(-c2cc(-c3cccs3)cnc2N)ccc1C(N)=O
IC50 [2]: 10500 nM

CC(Oc1cc(-c2cc(-c3cccs3)cnc2N)ccc1C(N)=O)c1ccccc1C(F)(F)F (racemic)
IC50 [2]: 9000 nM

CC(Oc1cc(-c2cc(-c3ccc(CN(C)C)s3)cnc2N)ccc1C(N)=O)c1ccccc1C(F)(F)F (racemic)
IC50 [1]: 0.5 µM | IC50 [2]: 47 nM

Cc1cc(CN(C)C)sc1-c1cnc(N)c(-c2ccc(C(N)=O)c(OC(C)c3ccccc3C(F)(F)F)c2)c1 (racemic)
IC50 [2]: 58 nM

CC(Oc1cc(-c2cc(-c3ccc(CN(C)C)cc3)cnc2N)ccc1C(N)=O)c1ccccc1C(F)(F)F (racemic)
IC50 [1]: 1.56 µM | IC50 [3]: 2740 nM | IC50 [2]: 120 nM | IC50 [4]: 3.06 µM | IC50 [5]: 7.93 µM

CC(Oc1cc(-c2nc(-c3ccc(CN(C)C)s3)cnc2N)ccc1C(N)=O)c1ccccc1C(F)(F)F (racemic)
IC50 [2]: 2680 nM

CC(Oc1cc(-c2nc(-c3ccc(CN(C)C)cc3)cnc2N)ccc1C(N)=O)c1ccccc1C(F)(F)F (racemic)
IC50 [1]: 3.9 µM | IC50 [2]: 790 nM

CC(Oc1cc(-c2cc(-c3cc(CN(C)C)cs3)cnc2N)ccc1C(N)=O)c1ccccc1C(F)(F)F (racemic)
IC50 [1]: 1.32 µM | metabolised at 0.5 h [6]: 87%

CC(Oc1cc(-c2cc(-c3ccc(CN4CCCCC4)s3)cnc2N)ccc1C(N)=O)c1ccccc1C(F)(F)F (racemic)
IC50 [2]: 93 nM

COc1cc(-c2cc(-c3cc(CN(C)C)cs3)cnc2N)ccc1C(N)=O
IC50 [2]: 2260 nM

C[C@@H](/C=C\C(F)(F)F)Oc1cc(-c2cc(-c3cc(CN(C)C)cs3)cnc2N)ccc1C(N)=O
IC50 [1]: > 50 µM | GI50 [7]: 5420 nM | IC50 [3]: 530 nM | GI50 [8]: 2170 nM | GI50 [9]: 7.25 µM | IC50 [2]: 1800 nM | IC50 [4]: 7.12 µM | GI50 [10]: 440 nM | IC50 [11]: Not Active | IC50 [5]: 2.33 µM

C[C@@H](Oc1cc(-c2cc(-c3cc(CN(C)C)cs3)cnc2N)ccc1C(N)=O)c1ccccc1C(F)(F)F
IC50 [1]: 0.82 µM | GI50 [7]: 220 nM | IC50 [3]: 26600 nM | GI50 [8]: 480 nM | GI50 [9]: 0.95 µM | IC50 [4]: 4.81 µM | GI50 [10]: 140 nM | IC50 [5]: 8.81 µM

CC(/C=C\C(F)(F)F)Oc1cc(-c2cc(-c3cc(CN(C)C)cs3)cnc2N)ccc1C(N)=O (racemic)
IC50 [1]: 8.41 µM | permeability [12]: 27.6 ×10⁻⁶ cm/s | IC50 [2]: 73 nM | metabolised at 0.5 h [6]: 95%

CC(Oc1cc(-n2cnc3cc(OC4CCN(C)CC4)ccc32)ccc1C(N)=O)c1ccccc1C(F)(F)F (racemic)
GI50 [7]: 2030 nM | GI50 [8]: 2960 nM | GI50 [9]: 4.95 µM | GI50 [10]: 1200 nM | IC50 [11]: Not Active
